Data taken from ChEMBL document CHEMBL3228009, “Hypobetalipoproteinemic agents. 2. Compounds related to 4-(1-adamantyloxy)aniline” (J Med Chem, 1979).

Experiments:
Rattus norvegicus [1] = experiment: Hypobetalipoproteinemic activity in diet-induced hypercholesteremic rat model assessed as decrease in total serum cholesterol at 50 mg/kg, po relative to control; format: functional
Rattus norvegicus [2] = experiment: Hypobetalipoproteinemic activity in diet-induced hypercholesteremic rat model assessed as decrease in heparin precipitating lipoproteins at 50 mg/kg, po relative to control; format: functional
Rattus norvegicus [3] = species: Rattus norvegicus; experiment: Selectivity ratio of T/C for heparin precipitating lipoproteins to T/C for total serum cholesterol in diet-induced hypercholesteremic rat model; format: functional
Rattus norvegicus [4] = experiment: Toxicity in diet-induced hypercholesteremic rat model assessed as increase in body weight at 50 mg/kg, po relative to control; format: organism-based; set-up: dose 50 mg/kg, route oral; settings: in vivo
Rattus norvegicus [5] = experiment: Toxicity in diet-induced hypercholesteremic rat model assessed as increase in food intake at 50 mg/kg, po relative to control; format: organism-based; set-up: dose 50 mg/kg, route oral; settings: in vivo

| Structure (SMILES) | T/C (Rattus norvegicus [1]) | T/C (Rattus norvegicus [2]) | Selectivity ratio (Rattus norvegicus [3]) | Activity (Rattus norvegicus [4]) | Activity (Rattus norvegicus [5]) |
| --- | --- | --- | --- | --- | --- |
| OC12CC3CC(CC(C3)C1)C2 | 0.94 | 0.98 | 1.04 | > 63% | > 73% |
| Nc1ccc(OC23CCC(CC2)CC3)cc1 | 0.8 | 0.72 | 0.9 | > 63% | > 73% |
| Nc1ccc(OC23CC4CC(CC(C4)C2)C3)cc1 | 0.54 | 0.35 | 0.65 | > 63% | > 73% |
| O=CNc1ccc(OC23CC4CC(CC(C4)C2)C3)cc1 | 0.71 | 0.78 | 1.09 | > 63% | > 73% |
| CCOC(=O)Nc1ccc(OC23CC4CC(CC(C4)C2)C3)cc1 | 0.57 | 0.42 | 0.74 | > 63% | > 73% |
| CC(=O)Nc1ccc(OC23CC4CC(CC(C4)C2)C3)cc1 | 0.66 | 0.5 | 0.76 | > 63% | > 73% |
| CS(=O)(=O)Nc1ccc(OC23CC4CC(CC(C4)C2)C3)cc1 | 1.51 | 1.3 | 0.85 | > 63% | > 73% |
| CNC(=O)Nc1ccc(OC23CC4CC(CC(C4)C2)C3)cc1 | 1.06 | 0.96 | 0.91 | > 63% | > 73% |
| O=C(Nc1ccccc1)Nc1ccc(OC23CC4CC(CC(C4)C2)C3)cc1 | 1.18 | 1.23 | 1.05 | > 63% | > 73% |
| S=C(Nc1ccc(OC23CC4CC(CC(C4)C2)C3)cc1)NC12CC3CC(CC(C3)C1)C2 | 0.88 | 0.91 | 1.03 | > 63% | > 73% |
| CNc1ccc(OC23CC4CC(CC(C4)C2)C3)cc1.Cl | 0.52 | 0.32 | 0.63 | > 63% | > 73% |
| CCNc1ccc(OC23CC4CC(CC(C4)C2)C3)cc1.Cl | 0.49 | 0.36 | 0.72 | > 63% | > 73% |
| c1cc(N2CCCC2)ccc1OC12CC3CC(CC(C3)C1)C2 | 0.65 | 0.52 | 0.8 | > 63% | > 73% |
| c1cc(N2CCCCC2)ccc1OC12CC3CC(CC(C3)C1)C2 | 0.44 | 0.25 | 0.58 | > 63% | > 73% |
| c1cc(N2CCOCC2)ccc1OC12CC3CC(CC(C3)C1)C2 | 0.92 | 0.87 | 0.94 | > 63% | > 73% |
| C#CCN(C)c1ccc(OC23CC4CC(CC(C4)C2)C3)cc1.Cl | 0.57 | 0.6 | 1.05 | > 63% | > 73% |
| CN(CCO)c1ccc(OC23CC4CC(CC(C4)C2)C3)cc1 | 0.63 | 0.55 | 0.88 | > 63% | > 73% |
| CN(CCN1CCCC1)c1ccc(OC23CC4CC(CC(C4)C2)C3)cc1.Cl | 1.26 | 1.22 | 0.97 | > 63% | > 73% |
| CN(C)CCCN(C)c1ccc(OC23CC4CC(CC(C4)C2)C3)cc1.Cl | 0.98 | 0.99 | 1.01 | > 63% | > 73% |
| CN(C=O)c1ccc(OC23CC4CC(CC(C4)C2)C3)cc1 | 0.51 | 0.36 | 0.72 | > 63% | > 73% |
| CN(C)c1ccc(OC23CC4CC(CC(C4)C2)C3)cc1.Cl | 0.46 | 0.34 | 0.73 | > 63% | > 73% |
| CN(CCc1ccccc1)c1ccc(OC23CC4CC(CC(C4)C2)C3)cc1.Cl | 1.09 | 1.07 | 0.98 | > 63% | > 73% |
| CN(CCOc1ccccc1)c1ccc(OC23CC4CC(CC(C4)C2)C3)cc1 | 1.03 | 1.06 | 1.03 | > 63% | > 73% |
| CCCCCCCCN(C)c1ccc(OC23CC4CC(CC(C4)C2)C3)cc1.Cl | 1.15 | 1.04 | 0.91 | > 63% | > 73% |

| Structure (SMILES) | T/C (Rattus norvegicus [1]) | T/C (Rattus norvegicus [2]) | Selectivity ratio (Rattus norvegicus [3]) | Activity (Rattus norvegicus [4]) | Activity (Rattus norvegicus [5]) |
| --- | --- | --- | --- | --- | --- |
| Cc1cc(N)ccc1OC12CC3CC(CC(C3)C1)C2.Cl | 0.52 | 0.31 | 0.6 | < 63% | > 73% |
| Nc1ccc(OC23CC4CC(CC(C4)C2)C3)c(F)c1 | 0.57 | 0.52 | 0.92 | > 63% | > 73% |
| CC(=O)Nc1ccc(OC23CC4CC(CC(C4)C2)C3)c(F)c1 | 1.15 | 1.07 | 0.93 | > 63% | > 73% |
| Fc1cc(N2CCCC2)ccc1OC12CC3CC(CC(C3)C1)C2 | 0.8 | 0.82 | 1.02 | > 63% | > 73% |
| Nc1ccc(OC23CC4CC(CC(C4)C2)C3)cc1F | 0.35 | 0.24 | 0.68 | > 63% | > 73% |
| CC(=O)Nc1ccc(OC23CC4CC(CC(C4)C2)C3)cc1F | 0.62 | 0.35 | 0.55 | > 63% | > 73% |
| Fc1cc(OC23CC4CC(CC(C4)C2)C3)ccc1N1CCCC1 | 0.58 | 0.3 | 0.51 | > 63% | > 73% |
| Cl.Nc1ccc(OC23CC4CC(CC(C4)C2)C3)c(Cl)c1 | 0.63 | 0.43 | 0.68 | > 63% | > 73% |
| Clc1cc(N2CCCC2)ccc1OC12CC3CC(CC(C3)C1)C2 | 1.08 | 1.07 | 0.98 | > 63% | > 73% |
| Cc1cc(N)cc(C)c1OC12CC3CC(CC(C3)C1)C2.Cl | 0.86 | 0.8 | 0.93 | > 63% | > 73% |
| Cc1cc(N2CCCC2)cc(C)c1OC12CC3CC(CC(C3)C1)C2 | 0.81 | 0.78 | 0.96 | > 63% | > 73% |
| CSCc1cc(OC23CC4CC(CC(C4)C2)C3)ccc1N | 0.49 | 0.38 | 0.76 | > 63% | > 73% |
| Cc1cc(OC23CC4CC(CC(C4)C2)C3)ccc1N | 0.64 | 0.25 | 0.38 | < 63% | < 73% |
| CSCc1cc(OC23CC4CC(CC(C4)C2)C3)cc(C)c1N | 0.88 | 0.85 | 0.96 | > 63% | > 73% |
| Cc1cc(OC23CC4CC(CC(C4)C2)C3)cc(C)c1N | 0.77 | 0.72 | 0.93 | > 63% | > 73% |
| Cc1cc(OC23CC4CC(CC(C4)C2)C3)cc(C)c1N1CCCC1 | 1.18 | 1.28 | 1.08 | > 63% | > 73% |
| Cl.Nc1ccc(C23CC4CC(CC(C4)C2)C3)cc1 | 1.41 | 1.4 | 0.99 | > 63% | > 73% |
| c1cc(C23CC4CC(CC(C4)C2)C3)ccc1N1CCCC1 | 1.17 | 0.9 | 0.77 | > 63% | > 73% |
| Cl.Nc1ccc(CC23CC4CC(CC(C4)C2)C3)cc1 | 0.45 | 0.23 | 0.5 | > 63% | > 73% |
| CNc1ccc(CC23CC4CC(CC(C4)C2)C3)cc1.Cl | 0.55 | 0.45 | 0.82 | > 63% | > 73% |
| c1cc(N2CCCC2)ccc1CC12CC3CC(CC(C3)C1)C2 | 0.82 | 0.87 | 1.06 | > 63% | > 73% |
| Cl.Nc1ccccc1CC12CC3CC(CC(C3)C1)C2 | 0.86 | 0.89 | 1.03 | > 63% | > 73% |
| c1ccc(N2CCCC2)c(CC23CC4CC(CC(C4)C2)C3)c1 | 1.39 | 1.4 | 1.01 | > 63% | > 73% |
| CN(c1ccc(N)cc1)C12CC3CC(CC(C3)C1)C2.Cl | 0.84 | 0.82 | 0.98 | < 63% | < 73% |
